These results are taken from PubChem BioAssay AID977605 (Broad Institute, 2014).

The source made the active and inactive calls.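 How the source made its calls: active means fitted curve reaches 40% activation below the top valid tested dose, in every test run; inconclusive means test runs disagree on the call; inactive means the rest, including effects opposite to the expected direction.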

The nature of one experiment: E-selectin inducers in HUVECs, dose response, imaging, HUVEC, cherry-picked samples (AID 977605).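 Further: signal is the share of imaged cells scored positive for E-selectin.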 The note with it: HUVEC E-selectin immunostaining, at 18 µM (top of the series), percent of TNF-alpha response over vehicle.
As to `C[C@H](CO)N1C[C@H](C)[C@H](CN(C)C(=O)Nc2ccc3c(c2)OCO3)Oc2ccc(NC(=O)CCCCCC(=O)Nc3ccccc3N)cc2CC1=O`, the activation was 0.255% (inactive).

The same experiment, now with this note: HUVEC E-selectin immunostaining, at 19.5 µM (top of the series).
With `C=COCCn1c(C)c(C(C)=O)c2cc(O)ccc21`, the activation is 0.265% (inactive).

Staying with this experiment, now noted: HUVEC E-selectin immunostaining, at 19.5 µM (top of the series), percent of TNF-alpha response over vehicle.
Regarding `Cc1ccc(S(=O)(=O)N(C)C[C@@H]2Oc3c(NS(=O)(=O)c4ccc(Cl)cc4)cccc3C(=O)N([C@@H](C)CO)C[C@H]2C)cc1`, the activation was -0.172% (inactive).

As for `CCCCCCOc1ccc(C(CC(N)=O)C(=O)O)cc1` (stereo not given), the activation is -0.269% (inactive).

Take `C[C@@H]1CN([C@H](C)CO)C(=O)c2cc(NC(=O)NC3CCCCC3)ccc2O[C@H]1CN(C)S(=O)(=O)c1ccc(Cl)cc1`: the activation was 1.03% (inactive).

On to `Cc1cccc(NS(=O)(=O)c2csc(C(N)=O)c2)c1C`, for which the activation is 0.111% (inactive).

Consider `C[C@H](CO)N1C[C@H](C)[C@@H](CN(C)S(C)(=O)=O)Oc2ccc(NC(=O)C3CCCCC3)cc2CC1=O`, for which the activation was 0.112% (inactive).

As for `C[C@H](CO)N1C[C@H](C)[C@H](CN(C)Cc2ccncc2)Oc2ccc(NC(=O)CCC(F)(F)F)cc2CC1=O`, the activation was -0.107% (inactive).

`COc1ccccc1CC(Cc1nc2ccccc2[nH]1)c1nc2ccccc2[nH]1` (stereo not given): the activation was 0.165% (inactive).

Consider `C[C@H](CO)N1C[C@H](C)[C@@H](CN(C)S(=O)(=O)c2ccccc2)Oc2ccc(NC(=O)Nc3ccc(C(F)(F)F)cc3)cc2C1=O`, for which the activation was 0.863% (inactive).

As for `NC(=O)C1CCN(c2nc(-c3ccccc3-c3ccccc3)cs2)CC1`, the activation was 0.136% (inactive).

Turning to `COc1ccc(NC(=O)N(C)C[C@@H]2Oc3ccc(NC(=O)c4ccncc4)cc3CC(=O)N([C@@H](C)CO)C[C@H]2C)cc1`, the activation is -0.088% (inactive).

`C[C@H](CO)N1C[C@H](C)[C@H](CN(C)C(=O)Nc2ccccc2)Oc2ccc(NS(C)(=O)=O)cc2C1=O`: the activation is -0.163% (inactive).

With `CC1CC(=O)Nc2ccccc2N1S(=O)(=O)c1cccs1` (stereo not given), the activation was -0.177% (inactive).

Regarding `C[C@H]1CN([C@@H](C)CO)C(=O)c2cccc(NS(C)(=O)=O)c2O[C@@H]1CN(C)Cc1ccncc1`, the activation is -0.178% (inactive).

On to `CCc1ccc(N2CC(C(=O)Nc3ccc(F)cc3)CC2=O)cc1` (stereo not given), for which the activation was 0.132% (inactive).

Turning to `O=C(COc1ccc(Cl)cc1)Nc1nnc(S(=O)(=O)N2CCCCCC2)s1`, the activation is 1.11% (inactive).

`CC(C)NC(=O)Nc1ccc2c(c1)C(=O)N([C@@H](C)CO)C[C@H](C)[C@H](CN(C)Cc1ccc(C(F)(F)F)cc1)O2`: the activation is 0.054% (inactive).

As to `C[C@H]1CN([C@@H](C)CO)C(=O)c2cccc(NC(=O)Nc3ccc(F)cc3)c2O[C@H]1CN(C)CC1CCCCC1`, the activation is -0.099% (inactive).

Turning to `O=S(=O)(Nc1cccc(Oc2cnccn2)c1)c1ccc(F)cc1`, the activation is 0.221% (inactive).

Turning to `C[C@H]1CN([C@@H](C)CO)C(=O)c2cc(N(C)C)ccc2O[C@H]1CN(C)S(=O)(=O)c1cn(C)cn1`, the activation is 0.81% (inactive).

As for `CSc1nc2c(cnn2-c2ccc(C)c(C)c2)c(=O)[nH]1`, the activation was 0.487% (inactive).

As to `O=C(Nc1cccc(C(F)(F)F)c1)c1cc[n+]([O-])cc1`, the activation is 0.066% (inactive).

`C[C@H](CO)N1C[C@H](C)[C@@H](CN(C)Cc2ccccc2)Oc2c(NC(=O)C3CC3)cccc2C1=O`: the activation is -0.084% (inactive).

In the case of `COc1ccc(S(=O)(=O)Nc2ccc3c(c2)C(=O)N([C@@H](C)CO)C[C@H](C)[C@@H](CN(C)Cc2ccc(Cl)c(Cl)c2)O3)cc1`, the activation was -0.097% (inactive).

For `CNC(=O)C[C@H]1CC[C@H]2[C@@H](COc3ccc(NC(=O)c4cccc(F)c4)cc3C(=O)N2C)O1`, the activation was 1.5% (inactive).

For the compound `COc1ccccc1-c1nnc(NC(=O)CSc2nncn2C)s1`, the activation was -0.056% (inactive).

With `CC(C)NC(=O)N(C)C[C@@H]1Oc2c(NC(=O)c3ccc(-c4nccs4)cc3)cccc2C(=O)N([C@@H](C)CO)C[C@H]1C`, the activation is 1.61% (inactive).

Take `CCOC(=O)N1CCN=C1SCc1ccc(Cl)c(Cl)c1`: the activation was 5.27% (inactive).

For `COc1ccc(C2c3[nH]c4ccccc4c3C[C@H]3C(=O)N(CC(C)C)CC(=O)N23)c(OC)c1` (stereo not given in full), the activation was 0.036% (inactive).

`COC(=O)c1sc2nc(SCC(=O)N(C)c3ccccc3)n(N)c(=O)c2c1C`: the activation is 1.12% (inactive).

Take `COc1ccc(S(=O)(=O)Nc2cccc3c2O[C@H](CN(C)C(=O)Nc2c(C)noc2C)[C@H](C)CN([C@H](C)CO)C3=O)cc1`: the activation is -0.109% (inactive).

Turning to `c1ccc(Nc2nnc(-c3cccnc3)s2)cc1`, the activation is 0.863% (inactive).

Turning to `C[C@@H]1CN([C@@H](C)CO)C(=O)c2cc(NC(=O)Cc3cn(C)c4ccccc34)ccc2O[C@H]1CN(C)Cc1ccc2c(c1)OCO2`, the activation was -0.066% (inactive).

As for `C[C@H]1CN([C@@H](C)CO)C(=O)c2cccc(NS(C)(=O)=O)c2O[C@H]1CN(C)S(C)(=O)=O`, the activation was 0.973% (inactive).

For `CC(C)NC(=O)Nc1ccc2c(c1)C(=O)N([C@@H](C)CO)C[C@@H](C)[C@@H](CN(C)Cc1ccc(C(F)(F)F)cc1)O2`, the activation was 0.127% (inactive).

`Cc1noc(C)c1S(=O)(=O)Nc1ccc2c(c1)C(=O)N([C@@H](C)CO)C[C@@H](C)[C@@H](CN(C)Cc1ccc3c(c1)OCO3)O2`: the activation is -0.115% (inactive).

For `CC(=O)Nc1ccc(CNc2nc(NC(C)C)nc3cc(-c4ccccc4)sc23)cc1`, the activation was 1.22% (inactive).

As for `CNS(=O)(=O)c1ccc(NC(=O)C2CC(=O)N(c3ccc(Cl)cc3)C2)cc1` (stereo not given), the activation was -0.269% (inactive).

For `COc1ccc(-c2nc(NC(=O)Cn3c(=O)oc4ccccc43)sc2C)cc1`, the activation was 1.37% (inactive).

`C[C@@H]1CN([C@@H](C)CO)C(=O)c2cccc(NC(=O)C3CCOCC3)c2O[C@@H]1CN(C)Cc1ccncc1`: the activation is 0.913% (inactive).

Take `COc1ccc(S(=O)(=O)N(C)C[C@@H]2Oc3ccc(NC(=O)c4ccncc4)cc3C(=O)N([C@@H](C)CO)C[C@@H]2C)cc1`: the activation is -0.183% (inactive).

For `C[C@H](CO)N1C[C@H](C)[C@H](CN(C)S(=O)(=O)c2ccccc2)Oc2c(NC(=O)Nc3ccccc3)cccc2C1=O`, the activation is -0.014% (inactive).

For the compound `C[C@@H]1CN([C@@H](C)CO)C(=O)Cc2cc(NC(=O)Nc3ccc(F)cc3)ccc2O[C@@H]1CN(C)S(=O)(=O)c1cn(C)cn1`, the activation was -0.041% (inactive).

On to `C[C@@H]1CN([C@@H](C)CO)C(=O)c2cccc(NC(=O)C3CC3)c2O[C@H]1CN(C)Cc1ccccc1`, for which the activation was 0.172% (inactive).

`CCCCSCCCNC(=O)C1CCC(CNS(=O)(=O)c2ccc(NC(C)=O)cc2)CC1` (stereo not given): the activation was 0.405% (inactive).

For `COc1ccc(OCC(O)CNC(=O)c2ccccc2)cc1` (stereo not given), the activation is 4.38% (inactive).

On to `CNC(=O)Oc1ccc2c(c1)[C@]1(C)CCN(C)C1N2C` (stereo not given in full), for which the activation is -0.106% (inactive).

Regarding `CCC(=O)N(C)C[C@H]1Oc2cc(C3=CCCC3)ccc2S(=O)(=O)N([C@@H](C)CO)C[C@@H]1C`, the activation is -0.074% (inactive).

Take `CCN(CC)c1ccc(S(=O)(=O)N2CCOCC2)cc1NC(=O)CN1C(=O)NC2(CCCC2)C1=O`: the activation is 4.54% (inactive).

For `COc1ccc(NS(=O)(=O)c2ccc3c(c2)CCCN3C(C)=O)cc1`, the activation is -0.06% (inactive).

As for `C[C@@H]1CN([C@@H](C)CO)C(=O)c2cc(C#CC3CC3)cnc2O[C@@H]1CN(C)C(=O)c1ccccc1`, the activation is -0.295% (inactive).

As for `C[C@@H]1CN([C@H](C)CO)C(=O)Cc2cc(NS(=O)(=O)c3ccccc3)ccc2O[C@@H]1CN(C)Cc1ccc(C(F)(F)F)cc1`, the activation is 0.93% (inactive).

Take `C[C@H](CO)N1C[C@H](C)[C@@H](CN(C)Cc2ccc(-c3ccccc3)cc2)Oc2c(NC(=O)Nc3cccc4ccccc34)cccc2C1=O`: the activation was 1.82% (inactive).

As to `CC(C)NC(=O)N(C)C[C@@H]1Oc2c(NC(=O)c3cnccn3)cccc2C(=O)N([C@@H](C)CO)C[C@@H]1C`, the activation is -0.012% (inactive).

With `Fc1ccc(NC(=S)N2CCN(c3cccc(C(F)(F)F)c3)CC2)cc1`, the activation was -0.235% (inactive).

Take `C[C@H](CO)N1C[C@H](C)[C@H](CN(C)Cc2ccc3c(c2)OCO3)Oc2ccc(NC(=O)Cc3cn(C)c4ccccc34)cc2C1=O`: the activation was 0.14% (inactive).

The experiment is the same for the next values; noted with them: HUVEC E-selectin immunostaining, at 21 µM (top of the series), percent of TNF-alpha response over vehicle.
As to `C[C@@H]1CN([C@H](C)CO)C(=O)c2cccc(NC(=O)C3CC3)c2O[C@H]1CN(C)CC1CC1`, the activation is -0.061% (inactive).

As for `CN1C(=O)c2cc(NC(=O)C3CCOCC3)ccc2OC[C@@H]2O[C@H](CC(=O)NCc3ccccc3F)CC[C@H]21`, the activation is -0.036% (inactive).

Turning to `C[C@H]1CN([C@@H](C)CO)C(=O)c2cc(NC(=O)Nc3ccc(C(F)(F)F)cc3)ccc2O[C@@H]1CN(C)S(=O)(=O)c1ccccc1`, the activation was 0.012% (inactive).

Turning to `COc1ccc(S(=O)(=O)Nc2ccc3c(c2)C(=O)N([C@@H](C)CO)C[C@H](C)[C@H](CN(C)S(=O)(=O)c2ccc(Cl)cc2)O3)cc1`, the activation was 0.145% (inactive).

With `C[C@@H]1CN([C@H](C)CO)C(=O)Cc2cc(NC(=O)Nc3ccc(F)cc3)ccc2O[C@@H]1CN(C)Cc1ccncc1`, the activation is -0.095% (inactive).

Turning to `C[C@@H]1CN([C@H](C)CO)C(=O)Cc2cc(NC(=O)Nc3ccc(C(F)(F)F)cc3)ccc2O[C@H]1CN(C)Cc1ccc(Oc2ccccc2)cc1`, the activation is -0.245% (inactive).

As to `C[C@H]1CN([C@@H](C)CO)C(=O)Cc2cc(NS(C)(=O)=O)ccc2O[C@@H]1CN(C)Cc1ccncc1`, the activation is 0.217% (inactive).

As for `C[C@H](CO)N1C[C@H](C)[C@@H](CN(C)C(=O)NC2CCCCC2)Oc2ccc(NC(=O)Nc3ccc(C(F)(F)F)cc3)cc2C1=O`, the activation was -0.177% (inactive).
